# Legend:
# [1] = test system: paclitaxel-induced hyperalgesia; assay: Paclitaxel-induced hyperalgesia in the rat (paw-pressure test); format: in vivo; settings: PCT-treated rats, mean ± S.E.M.; for Mechanical threshold (g), After Treatment 15 min: 15 min after treatment; for Mechanical threshold (g), After Treatment 30 min: 30 min after treatment; for Mechanical threshold (g), After Treatment 45 min: 45 min after treatment
# Protocol: In all methods, paw mechanical sensitivity was determined using either the paw pressure test or the incapacitance test. The paw pressure test utilizes a Randall & Selitto apparatus, exerting a force that increases at constant rate (32 g/s). The stimulus at which rats withdrawn the paw was evaluated before and at different times after treatment. Results represent the mean of mechanical thresholds expressed as grams. To avoid any possible damage to the animal paw the maximum applied force was fixed at 240 g. Peripheral neuropathy is induced by repeated administration of vincristine, paclitaxel or oxaliplatin to adult male Sprague-Dawley rats (150-200 g, supplier Harlan). The following protocols were used respectively: • Vincristine: the drug was injected by intravenous route at the dose of 150 μg/kg. The treatment was performed every 2 days, for 5 times, until a cumulative dose of 750 μg/kg was reached. Paw pressure test was performed 4 days after the last injection (Marchand F. et al. 2003, Brain Res. 980:117-120). • Paclitaxel: paclitaxel (PCT) neuropathy was induced by intraperitoneal administration of 0.5 mg/kg once a day, on days 1, 3, 5 and 8. Cumulative paclitaxel dose was 2 mg/kg. The pharmacological test was performed 14-18 days after the last paclitaxel injection (Polomano R. C. et al. 2001, Pain 94:293-304). • Oxaliplatin: 2.4 mg/kg were injected by intraperitoneal route for 5 consecutive days followed by 2 days suspension (one cicle). A total of 3 cycles was performed, reaching a cumulative dose of 36 mg/kg (Cavaletti G. 2001, Eur. J. Cancer 37:2457-2463). The test was performed 48 h after the last oxaliplatin injection. 2. Osteoarthritic Pain
# MIA-induced hyperalgesia [2] = assay: MIA-induced hyperalgesia in the rat (paw-pressure test), osteoarthritic pain; format: in vivo; settings: MIA-treated rats, mean ± S.E.M.; for Mechanical threshold (g), After Treatment 15 min / Mechanical threshold (g), After Treatment 30 min / Mechanical threshold (g), After Treatment 45 min: 3 mg/kg i.v.; for Mechanical threshold (g), After Treatment 15 min: 15 min after treatment; for Mechanical threshold (g), After Treatment 30 min: 30 min after treatment; for Mechanical threshold (g), After Treatment 45 min: 45 min after treatment; for Mechanical threshold (g), Before Treatment basal: group 3 mg/kg i.v.
# Protocol: In all methods, paw mechanical sensitivity was determined using either the paw pressure test or the incapacitance test. The paw pressure test utilizes a Randall & Selitto apparatus, exerting a force that increases at constant rate (32 g/s). The stimulus at which rats withdrawn the paw was evaluated before and at different times after treatment. Results represent the mean of mechanical thresholds expressed as grams. To avoid any possible damage to the animal paw the maximum applied force was fixed at 240 g. Osteoarthritis was induced by a single administration of 2 mg (in a volume of 25 μl) of monosodium iodoacetate (MIA) into the left knee joint of anaesthetized rats (male adult Sprague Dawley rats, 150-200 g, supplier Harlan) (Fernihough J. 2004, Pain 112:83-93). This treatment induces the progressive degeneration of the joint and the development of hyperalgesia, mimicking at the histological and behavioral levels what observed in humans. Pharmacological test was performed 7 days after treatment.
# MIA-induced hyperalgesia [3] = assay: MIA-induced hyperalgesia in the rat (incapacitance test), osteoarthritic pain; format: in vivo; settings: MIA-treated rats, grams of the right paw, mean ± S.E.M.
# Protocol: In all methods, paw mechanical sensitivity was determined using either the paw pressure test or the incapacitance test. […] Osteoarthritis was induced by a single administration of 2 mg (in a volume of 25 μl) of monosodium iodoacetate (MIA) into the left knee joint of anaesthetized rats (male adult Sprague Dawley rats, 150-200 g, supplier Harlan) (Fernihough J. 2004, Pain 112:83-93). This treatment induces the progressive degeneration of the joint and the development of hyperalgesia, mimicking at the histological and behavioral levels what observed in humans. Pharmacological test was performed 7 days after treatment.
# [4] = 3 mg/kg i.v., 15 min after treatment
# [5] = 3 mg/kg i.v., 30 min after treatment
# [6] = 3 mg/kg i.v., 45 min after treatment
# [7] = before treatment (basal), group 3 mg/kg i.v.
Compound,melting point [°C],"Mechanical threshold (g), After Treatment 15 min ([1]; 3 mg/kg i.v.) [g]","Mechanical threshold (g), After Treatment 30 min ([1]; 3 mg/kg i.v.) [g]","Mechanical threshold (g), After Treatment 45 min ([1]; 3 mg/kg i.v.) [g]",further results
"O=C1CC[C@H]2CN(S(=O)(=O)c3ccccc3F)CCN12 [Example 1, (S)-(−)2-(2-fluorophenylsulfonyl)hexahydro pyrrolo[1,2-a]pyrazin-6(7H)-one]",142 to 144,,,,
"O=C1CC[C@H]2CN(S(=O)(=O)c3cccc(F)c3)CCN12 [Example 2, (S)-(−)2-(3-fluorophenylsulfonyl)hexahydro pyrrolo[1,2-a]pyrazin-6(7H)-one]",177 to 179,,,,
"O=C1CC[C@@H]2CN(S(=O)(=O)c3ccccc3F)CCN12 [Example 3, (R)-(+)2-(2-fluorophenylsulfonyl)hexahydro pyrrolo[1,2-a]pyrazin-6(7H)-one]",136 to 137,45.6 ± 3.9,53.3 ± 2.7,46.2 ± 3.3,"Mechanical threshold (g), After Treatment 15 min (MIA-induced hyperalgesia [2]): 61.3 ± 3.0 g; Mechanical threshold (g), After Treatment 30 min (MIA-induced hyperalgesia [2]): 58.1 ± 3.7 g; Mechanical threshold (g), After Treatment 45 min (MIA-induced hyperalgesia [2]): 49.2 ± 4.1 g; Mechanical threshold (g), Before Treatment basal (MIA-induced hyperalgesia [2]): 21.9 ± 1.9 g; Weight borne on right hind paw (MIA-induced hyperalgesia [3]; [4]): 106.9 ± 7.3 g; Weight borne on right hind paw (MIA-induced hyperalgesia [3]; [5]): 112.1 ± 8.5 g; Weight borne on right hind paw (MIA-induced hyperalgesia [3]; [6]): 81.8 ± 6.6 g; Weight borne on right hind paw (MIA-induced hyperalgesia [3]; [7]): 41.8 ± 6.0 g"
"O=C1CC[C@@H]2CN(S(=O)(=O)c3cccc(F)c3)CCN12 [Example 4, (R)-(+)2-(3-fluorophenylsulfonyl)hexahydro pyrrolo[1,2-a]pyrazin-6(7H)-one]",179 to 180,51.1 ± 2.4,55.8 ± 2.4,47.3 ± 2.9,"Mechanical threshold (g), After Treatment 15 min (MIA-induced hyperalgesia [2]): 41.4 ± 3.1 g; Mechanical threshold (g), After Treatment 30 min (MIA-induced hyperalgesia [2]): 53.0 ± 3.5 g; Mechanical threshold (g), After Treatment 45 min (MIA-induced hyperalgesia [2]): 42.6 ± 3.2 g; Mechanical threshold (g), Before Treatment basal (MIA-induced hyperalgesia [2]): 23.1 ± 2.5 g; Weight borne on right hind paw (MIA-induced hyperalgesia [3]; [4]): 90.1 ± 8.2 g; Weight borne on right hind paw (MIA-induced hyperalgesia [3]; [5]): 96.2 ± 7.5 g; Weight borne on right hind paw (MIA-induced hyperalgesia [3]; [6]): 72.5 ± 7.2 g; Weight borne on right hind paw (MIA-induced hyperalgesia [3]; [7]): 41.4 ± 5.8 g"
"Cc1cccc(S(=O)(=O)N2CCN3C(=O)CC[C@@H]3C2)c1 [Example 7, (R)-(+)-2-(m-tolylsulfonyl)hexahydro pyrrolo[1,2-a]pyrazin-6(7H)-one]",133 to 134,38.7 ± 2.2,47.6 ± 2.4,36.4 ± 2.5,
"O=C1CC[C@@H]2CN(S(=O)(=O)c3cccc(C(F)(F)F)c3)CCN12 [Example 9, (R)-(+)-2-(3-(tifluoromethyl)phenylsulfonyl) hexahydropyrrolo [1,2-a]pyrazin-6(7H)-one]",172 to 174,41.6 ± 3.6,44.5 ± 2.8,42.9 ± 4.3,
"N#Cc1ccccc1S(=O)(=O)N1CCN2C(=O)CC[C@@H]2C1 [Example 11, (R)-2-(6-oxohexahydropyrrolo[1,2-a]pyrazin-2(1H)-ylsulfonyl) benzonitrile]",198 to 199,45.3 ± 1.6,50.7 ± 2.3,48.4 ± 2.7,
"N#Cc1ccc(S(=O)(=O)N2CCN3C(=O)CC[C@@H]3C2)cc1 [Example 13, (R)-(+)-4-(6-oxohexahydropyrrolo[1,2-a]pyrazin-2(1H)-ylsulfonyl) benzonitrile]",242 to 243,,,,"Mechanical threshold (g), After Treatment 15 min ([1]; 1 mg/kg i.v.): 35.6 ± 3.1 g; Mechanical threshold (g), After Treatment 30 min ([1]; 1 mg/kg i.v.): 39.7 ± 2.4 g; Mechanical threshold (g), After Treatment 45 min ([1]; 1 mg/kg i.v.): 34.8 ± 3.3 g"
"COc1cccc(S(=O)(=O)N2CCN3C(=O)CC[C@@H]3C2)c1 [Example 15, (R)-2-(3-methoxyphenylsulfonyl)hexahydro pyrrolo[1,2-a]pyrazin-6(7H)-one]",144 to 145,,,,
"O=C(c1cccc(F)c1)N1CCN2C(=O)CC[C@H]2C1 [Example 19, (S)-2-(3-fluorobenzoyl) hexahydropyrrolo [1,2-a]pyrazin-6(7H)-one]",161 to 162,,,,
"O=C(c1ccccc1F)N1CCN2C(=O)CC[C@@H]2C1 [Example 20, (R)-2-(2-fluorobenzoyl) hexahydropyrrolo [1,2-a]pyrazin-6(7H)-one]",123 to 124,41.4 ± 2.3,45.7 ± 3.5,35.8 ± 3.0,
"Cc1ccc(N2CCN3C(=O)CCC3C2=O)cc1 (centres unmarked) [Example 24, 2-p-Tolyl-tetrahydro-pyrrolo[1,2-a]pyrazine-1,6-dione]",115 to 117,42.2 ± 2.6,43.4 ± 4.1,36.5 ± 4.2,

# More lines, main results first:
melting point [°C],Compound,"Mechanical threshold (g), After Treatment 15 min ([1]; 3 mg/kg i.v.) [g]","Mechanical threshold (g), After Treatment 30 min ([1]; 3 mg/kg i.v.) [g]","Mechanical threshold (g), After Treatment 45 min ([1]; 3 mg/kg i.v.) [g]",further results
208 to 209,"O=C1CC[C@@H]2CN(S(=O)(=O)c3ccc(F)c(F)c3)CCN12 [Example 5, (R)-(+)-2-(3,4-difluorophenylsulfonyl)hexahydro pyrrolo[1,2-a]pyrazin-6(7H)-one]",,,,
68 to 70,"Cc1ccccc1S(=O)(=O)N1CCN2C(=O)CC[C@@H]2C1 [Example 6, (R)-(+)-2-(o-tolylsulfonyl)hexahydro pyrrolo[1,2-a]pyrazin-6(7H)-one]",49.4 ± 3.0,48.8 ± 2.8,40.7 ± 2.2,
226 to 227,"O=C1CC[C@@H]2CN(S(=O)(=O)c3ccc(C(F)(F)F)cc3)CCN12 [Example 10, (R)-(+)-2-(4-(trifluoromethyl)phenylsulfonyl) hexahydropyrrolo [1,2-a]pyrazin-6(7H)-one]",,,,
180 to 181,"N#Cc1cccc(S(=O)(=O)N2CCN3C(=O)CC[C@@H]3C2)c1 [Example 12, (R)-3-(6-oxohexahydropyrrolo[1,2-a]pyrazin-2(1H)-ylsulfonyl) benzonitrile]",39.8 ± 3.7,41.5 ± 3.8,39.2 ± 4.4,
165 to 166,"O=C1CC[C@@H]2CN(S(=O)(=O)c3cccnc3)CCN12 [Example 16, (R)-2-(pyridin-3-ylsulfonyl)hexahydro pyrrolo[1,2-a]pyrazin-6(7H)-one]",,,,
123 to 124,"O=C(c1ccccc1F)N1CCN2C(=O)CC[C@H]2C1 [Example 18, (S)-2-(2-fluorobenzoyl) hexahydropyrrolo [1,2-a]pyrazin-6(7H)-one]",,,,
161 to 162,"O=C(c1cccc(F)c1)N1CCN2C(=O)CC[C@@H]2C1 [Example 21, (R)-2-(3-fluorobenzoyl) hexahydropyrrolo [1,2-a]pyrazin-6(7H)-one]",40.9 ± 3.5,46.2 ± 4.3,37.6 ± 4.3,
